In publication PMC8841438 (Clinical and Translational Science, 2021):
Read-outs that look alike come from different tables or passages of the source.

How the values were obtained:
[1] = type: in vivo, human
Safety assessments = type: in vivo, human; details: for subjects with at least one graded laboratory abnormality: majority grade 1 or 2
[2] = molecular target: T1, organic cation transporter 2 (OCT2) (Homo sapiens, UniProt O15244); assay: In vitro transporter inhibition: OCT2; type: in vitro ADME; details: data on file at Gilead Sciences, Inc.
T1 sequence (O15244 1-555): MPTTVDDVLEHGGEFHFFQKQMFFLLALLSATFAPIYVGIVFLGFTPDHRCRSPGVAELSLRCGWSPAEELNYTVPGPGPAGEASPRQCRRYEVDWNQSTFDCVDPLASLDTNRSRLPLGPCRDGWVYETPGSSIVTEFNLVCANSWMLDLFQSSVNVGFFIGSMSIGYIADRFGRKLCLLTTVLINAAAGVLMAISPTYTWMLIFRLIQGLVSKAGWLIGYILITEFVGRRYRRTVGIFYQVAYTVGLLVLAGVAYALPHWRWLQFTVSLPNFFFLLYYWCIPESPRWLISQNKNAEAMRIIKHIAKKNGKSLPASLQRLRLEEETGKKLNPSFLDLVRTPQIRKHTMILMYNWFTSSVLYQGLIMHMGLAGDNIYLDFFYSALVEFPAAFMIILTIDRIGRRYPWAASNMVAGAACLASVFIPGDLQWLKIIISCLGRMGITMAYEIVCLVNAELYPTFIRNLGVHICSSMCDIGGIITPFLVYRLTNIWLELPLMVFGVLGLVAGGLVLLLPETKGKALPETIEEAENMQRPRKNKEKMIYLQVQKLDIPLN

MATE1 [3] = molecular target: T2, MATE1 (Homo sapiens, UniProt Q96FL8); assay: In vitro transporter inhibition: MATE1; type: in vitro ADME; details: data on file at Gilead Sciences, Inc.
T2 sequence (Q96FL8 1-570): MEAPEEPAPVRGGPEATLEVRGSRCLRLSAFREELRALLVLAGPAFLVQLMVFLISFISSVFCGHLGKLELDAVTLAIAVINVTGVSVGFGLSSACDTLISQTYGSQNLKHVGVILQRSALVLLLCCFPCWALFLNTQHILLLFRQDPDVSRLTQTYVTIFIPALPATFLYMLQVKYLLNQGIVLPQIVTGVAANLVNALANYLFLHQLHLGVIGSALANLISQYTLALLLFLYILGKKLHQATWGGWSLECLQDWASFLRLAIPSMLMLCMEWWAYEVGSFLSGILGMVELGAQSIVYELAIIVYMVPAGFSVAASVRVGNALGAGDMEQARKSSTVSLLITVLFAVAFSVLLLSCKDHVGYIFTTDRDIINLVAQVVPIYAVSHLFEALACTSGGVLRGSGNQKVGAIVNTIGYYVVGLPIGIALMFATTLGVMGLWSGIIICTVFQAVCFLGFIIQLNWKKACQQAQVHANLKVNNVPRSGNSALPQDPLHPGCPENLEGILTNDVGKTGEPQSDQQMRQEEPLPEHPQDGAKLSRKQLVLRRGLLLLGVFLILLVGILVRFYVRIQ

MATE2K [4] = molecular target: T3, MATE2K (Homo sapiens, UniProt Q86VL8); assay: In vitro transporter inhibition: MATE2K; type: in vitro ADME; details: data on file at Gilead Sciences, Inc.
[5] = cited from earlier work
[6] = system: carboxylesterase 2 (CES2); details: cited from earlier work
P‐glycoprotein = details: in vitro; cited from earlier work
[7] = system: breast cancer resistance protein; details: in vitro; at clinically relevant concentrations; cited from earlier work
[8] = system: organic anion transporter 1; details: in vitro; at clinically relevant concentrations; cited from earlier work
[9] = system: organic anion transporter 4; details: in vitro; at clinically relevant concentrations; cited from earlier work
[10] = molecular target: T1, organic cation transporter 2 (OCT2); details: in vitro; cited from earlier work
MATE1 [11] = molecular target: T2, MATE1; details: in vitro; cited from earlier work
MATE2K [12] = molecular target: T3, MATE2K; details: in vitro; cited from earlier work
[13] = system: organic anion transporting polypeptide 1B1; details: in vitro; cited from earlier work
[14] = system: organic anion transporting polypeptide 1B3; details: in vitro; cited from earlier work
cytochrome P450 enzymes = details: cited from earlier work
[15] = no reference given; cited from earlier work
[16] = system: human colon carcinoma‐derived (Caco‐2) cells; details: no reference given; cited from earlier work
[17] = cited from earlier work; remark: listed apart in the source
[18] = ulcerative colitis phase IIb/III, cited from earlier work
[19] = study 1, filgotinib 100 mg with itraconazole 200 mg vs alone
[20] = study 1, filgotinib + itraconazole vs filgotinib alone
[21] = study 3, filgotinib treatment period
[22] = patients with rheumatoid arthritis

T3 sequence (Q86VL8 1-566 isoform Q86VL8-3): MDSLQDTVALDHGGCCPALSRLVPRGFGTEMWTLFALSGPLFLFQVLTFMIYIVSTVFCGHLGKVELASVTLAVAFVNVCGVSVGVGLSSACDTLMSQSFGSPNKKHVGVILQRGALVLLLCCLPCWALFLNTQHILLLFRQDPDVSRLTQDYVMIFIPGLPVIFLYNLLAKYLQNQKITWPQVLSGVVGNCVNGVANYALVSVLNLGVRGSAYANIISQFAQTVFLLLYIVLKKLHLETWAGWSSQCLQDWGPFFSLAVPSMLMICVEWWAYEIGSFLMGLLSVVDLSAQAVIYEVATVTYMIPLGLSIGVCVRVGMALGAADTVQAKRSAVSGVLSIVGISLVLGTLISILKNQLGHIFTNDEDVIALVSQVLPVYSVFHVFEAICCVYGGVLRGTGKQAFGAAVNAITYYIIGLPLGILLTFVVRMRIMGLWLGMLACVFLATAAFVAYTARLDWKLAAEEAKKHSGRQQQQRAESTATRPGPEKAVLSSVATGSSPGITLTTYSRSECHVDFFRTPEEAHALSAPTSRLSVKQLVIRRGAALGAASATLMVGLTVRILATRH

Tmax ([1]; human, plasma, oral): 1 h | half-life ([1]; human, plasma, oral): 6.26 h | AUC(0-inf) ([1]; human, plasma, oral, 100 mg): 2.19 µg·h/mL | AUC(0-t) ([1]; human, plasma, oral, 100 mg): 2.17 µg·h/mL | Cmax ([1]; human, plasma, oral, 100 mg): 0.756 µg/mL | Tmax ([1]; human, plasma, oral, 100 mg): 1 h | half-life ([1]; human, plasma, oral, 100 mg): 7.4 h | increase in AUCinf by itraconazole [1, 19]: 45% | increase in C max by itraconazole [1, 19]: 64% | AUCinf %GLSM ratio (90% CI) [1, 20]: 145 (133, 157) % | AUClast %GLSM ratio (90% CI) [1, 20]: 145 (133, 158) % | C max %GLSM ratio (90% CI) [1, 20]: 164 (129, 208) % | effect of itraconazole on pharmacokinetic parameters (in words) ([1]; study 1, filgotinib: Tmax, t1/2, GS‐829845: C max, AUCinf, T max, t 1/2): did not affect | CL/F ([1]; study 1, single filgotinib 100 mg alone, fasting, mean (%CV), N = 13): 48.6 (25.0) L/h | inhibition of OCT2 (in words) ([2]; in vitro data): may inhibit | ratio of maximum unbound plasma concentration over in vitro IC50 against OCT2 [2, 22]: 0.26 | inhibition of MATE1 (in words) (MATE1 [3]; in vitro data): may inhibit | ratio of maximum unbound plasma concentration over in vitro IC50 against MATE1 (MATE1 [3]; [22]): 0.26 | inhibition of MATE2K (in words) (MATE2K [4]; in vitro data): may inhibit | ratio of maximum unbound plasma concentration over in vitro IC50 against MATE2K (MATE2K [4]; [22]): 0.44
Compound: O=C(Nc1nc2cccc(-c3ccc(CN4CCS(=O)(=O)CC4)cc3)n2n1)C1CC1 [Filgotinib]
tolerability (in words) (Safety assessments; all three studies, alone or with the co‐administered drugs): generally well‐tolerated | subjects with AEs (Safety assessments; study 1, by treatment period, all grade 1, not related to study drug): 7.7% | subjects with at least one graded laboratory abnormality (Safety assessments; study 1, by treatment period): 15% | subjects with at least one graded laboratory abnormality (Safety assessments; study 2, by treatment period): 14% | subjects with AEs (Safety assessments; study 3, by treatment period, all grade 1): 8.3% | subjects with grade 3 decreased lymphocytes and neutrophils (Safety assessments; [21]): 8.3% | subjects with grade 3 laboratory abnormalities (Safety assessments; [21]): 25% | subjects with grade 3 occult blood in urine (Safety assessments; [21]): 17% | subjects with at least one graded laboratory abnormality (Safety assessments; [21]): 75% | AE considered related to study drug (kind of AE) (Safety assessments; study 3, one subject, by treatment phase): headache | administered dose eliminated in the urine as filgotinib and its metabolites [5]: Approximately 87% | dose eliminated in the feces [5]: about 15% | orally administered dose recovered in feces as the named species ([5]; filgotinib: unchanged): ~5% | orally administered dose recovered in urine as the named species ([5]; filgotinib: unchanged): ~ 9% | metabolism by CES2 to form GS‐829845 (in words) [6]: primarily metabolized | substrate of P‐glycoprotein (P‐glycoprotein): substrates | inhibition of breast cancer resistance protein [7]: not inhibitors | inhibition of organic anion transporter 1 [8]: not inhibitors | inhibition of organic anion transporter 4 [9]: not inhibitors | inhibition of OCT2 [10]: inhibited | inhibition of MATE1 (MATE1 [11]): inhibited | inhibition of MATE2K (MATE2K [12]): inhibited | inhibition of OATP1B1 [13]: inhibited | inhibition of OATP1B3 [14]: inhibited | drug‐drug interactions (DDIs) liability with cytochrome P450 enzymes (cytochrome P450 enzymes; in vitro and in vivo data): relatively low | substrate of the cytochrome P450 enzymes (cytochrome P450 enzymes; in vitro data, no reference given): not a substrate | permeability (BCS) [15]: high permeability | solubility (BCS) [15]: low solubility | efflux in Caco‐2 cells [16]: active efflux | accumulation following multiple doses [17]: no accumulation | time to steady‐state concentrations [17]: ~ 2 days | linearity of pharmacokinetics ([17]; from 50 to 200 mg, dose proportional and time‐independent): linear | primary end point in the induction studies ([18]; 100 mg dose): did not meet the primary end point | primary end points (clinical remission at week 10 and week 58) ([18]; 200 mg dose): met all the primary end points
